# Patent publication US6649618B2, “Substituted amidoalkyl-uracils and their use” (Bayer Aktiengesellschaft, priority 2000, dated 2003)
# Test system: MHEC5-T cells
# Assay: Cell protection assay (in vitro), H2O2-induced cell death, Alamar blue
# Type: cell-based
# Conditions: MHEC5-T endothelial cells, 3 mM H2O2, 5 hours; 50% of maximum protection, 10 μM DHCH defined as 100%; read-out: EC50, cell protection (in vitro)
# Description: 2) Test Description Cell Protection Assay (in vitro)
# In accordance with a method described by Bowes [Bowes et al., Br. J. Pharmacol., 124, 1760-1766 (1998)], the ability of PARS inhibitors to protect cells against cell death induced by incubation with H2O2 is examined in a cell protection assay. Incubation of endothelial cells with H2O2 results in the generation of DNA strand breaks which in turn activate PARS, resulting in a drastic energy decrease in the cells and in cell death. Living cells are quantified by a fluorimetric redox indicator (Alamar blue), which is converted in the electron transport system of the mitochondria.
# Specifically, 7500 MHEC5-T cells/well (DSM ACC 336; German collection of microorganisms and cell cultures) are sown in 4 replications on a 96-well plate. After 24 hours, the cells are incubated with 3 mM aqueous H2O2 solution and differing concentrations of the substances in the presence of 6% by volume of Alamar blue solution in the medium at 37° C. for 5 hours. The reference substance used is 10 μM 1,5-dihydroxyisoquinoline (DHCH) solution. After the incubation, the fluorescence is measured at an excitation wavelength of 530-560 nm and an emission wavelength of 590 nm. The percentage for the cell protection is calculated as the difference between the living cells treated only with H2O2 and the cells treated with H2O2 and PARS inhibitors. The internal standard used is 10 μM DHCH, which is defined as 100% protection. The results obtained for the other substances are compared to this value.
# The EC50 values indicate the concentration at which 50% of maximum cell protection is reached, maximum protection by 10 μM DHCH being defined as 100%. DHCH has an EC50 value of 2 μM.
row,Structure (SMILES),EC50 [nM]
1,CN(CCCn1c2c(c(=O)[nH]c1=O)CCCC2)S(=O)(=O)c1cccnc1 [Example 55],400
2,CN(CCCn1c2c(c(=O)[nH]c1=O)CSCC2)S(=O)(=O)c1cccnc1 [Example 59],250
3,"CN(CCCn1c2c(c(=O)[nH]c1=O)CSCC2)S(=O)(=O)c1ccccc1 [Example 2, N-[3-(2,4-Dioxo-3,4,7,8-tetrahydro-2H-thiopyrano[4,3-d]pyrimidin-1(5H)-yl)propyl]-N-methylphenylsulphonamide]",500
4,CN(CCCn1c2c(c(=O)[nH]c1=O)CSCC2)S(=O)(=O)c1ccc2oc(=O)ccc2c1 [Example 57],300
5,CN(CCCn1c2c(c(=O)[nH]c1=O)CSCC2)S(=O)(=O)c1ccc(F)cc1 [Example 58],400
6,CN(CCCn1c2c(c(=O)[nH]c1=O)CSCC2)S(=O)(=O)c1ccsc1[N+](=O)[O-] [Example 67],50
7,CN(CCCn1c2c(c(=O)[nH]c1=O)CCCC2)S(=O)(=O)c1cccc2nsnc12 [Example 61],500

# Same assay, conditions: MHEC5-T endothelial cells, 3 mM H2O2, 5 hours; reference substance; read-out: EC50 value, cell protection
row,Structure (SMILES),EC50 [nM]
1,"Oc1cccc2c(O)nccc12 [DHCH, 1,5-dihydroxyisoquinoline, reference compound]",2000

# Test system: not given
# Assay: not given
# Conditions: not given
row,melting point [°C],Structure (SMILES)
1,189,"O=C1CCCN1CCCn1c2c(c(=O)[nH]c1=O)CCCC2 [Example 1, 1-[3-(2-Oxo-1-pyrrolidinyl)propyl]-5,6,7,8-tetrahydro-2,4(1H,3H)-quinazolinedione]"
2,128,CN(CCCn1c2c(c(=O)[nH]c1=O)CCCC2)S(=O)(=O)c1cn(C)cn1 [Example 65]
3,> 240,CN(CCCn1c2c(c(=O)[nH]c1=O)CCCC2)S(=O)(=O)c1c(Cl)nc2sccn12 [Example 62]
4,> 240,"O=c1[nH]c(=O)n(C2CCCC(NS(=O)(=O)c3ccc([N+](=O)[O-])cc3)C2)c2c1CCCC2 (centres unmarked) [Example 3, N-[3-(2,4-Dioxo-3,4,5,6,7,8-hexahydro-1(2H)-quinazolinyl)cyclohexyl]4-nitrobenzenesulphonamide]"
5,170,CN(CCCn1c2c(c(=O)[nH]c1=O)CCCC2)S(=O)(=O)c1cccc2nsnc12 [Example 61]
6,> 240,O=c1ccc2cc(S(=O)(=O)NC3CCCC(n4c5c(c(=O)[nH]c4=O)CCCC5)C3)ccc2o1 (centres unmarked) [Example 51]
7,> 240,CC(=O)Nc1nc(C)c(S(=O)(=O)N(C)CCCn2c3c(c(=O)[nH]c2=O)CCCC3)s1 [Example 63]

# Test system: cytochrome P450
# Assay: not given
# Conditions: Eriksson et al. 1996; cited from earlier work
row,Structure (SMILES),inhibition of cytochrome P450 (unspecific PARS inhibitor)
1,NC(=O)c1cccc(N)c1 [3-aminobenzamide],inhibits cytochrome P450

# Test system: not given
# Assay: not given
# Conditions: Szabo and Dawson 1998; cited from earlier work
row,Structure (SMILES),side-effects
1,"Nc1ccc2oc(=O)ccc2c1I [5-iodo-6-amino-1,2-benzopyrone]",serious side-effects
